Data: patent publication US8685538B2, “Stable polyelectrolyte coated nanoparticles” (Northeastern University, priority 2009, dated 2014)

Experiment: Zeta potential (surface potential) measurement after each polyelectrolyte coating
Type: physicochemical
Method: 5 mg paclitaxel or atavoquone was dissolved in 5 mL of a 60% ethanol/water or a 60% acetone/water solution in a glass tube. This solution was ultrasonicated at 100% amplitude for 2 min, and then 1 mL of a 5 mg/mL polylysine, polyethylenimine, or protomine sulphate solution was added. This was then ultrasonicated for 1 min while adding water at certain speeds and volumes (e.g., 1 mL/min until 5 mL to 10 mL was reached). This was then ultrasonicated for another 30 min. After sonication, the zeta potential of the sample was measured to assure recharging of the formed paclitaxel nanocrystals to positive. Layer-by-layer (LbL) coating with 2 layers of BSA/PS (bovine serum albumin/protamine sulfate) was performed (as described in, e.g., WO2009/012303), followed by SEM readings and measurement of zeta potential.
After each coating, a sample was taken and surface potential was measured using a Zeta potential analyzer.
PAH and PSS were alternately added to the curcumin nanoparticles using the LbL procedure. […] PAH adsorption during nanoparticles synthesis converted the potential to +30±2 mV. Next, anionic PSS adsorption changed the potential to −53±2 mV, followed by +19±2 mV with the addition of PAH, and again to −50±2 mV with the addition of PSS. Therefore, multiple layers of polycations and polyanions, i.e., (PAH/PSS)2, were coated onto the curcumin nanoparticles.

SMILES | zeta potential (initial paclitaxel compound, no coating, FIG. 4) | zeta potential (bare, initial potential, FIG. 7)
CC(=O)O[C@H]1C(=O)[C@@]2(C)[C@H]([C@H](OC(=O)c3ccccc3)[C@]3(O)C[C@H](OC(=O)[C@H](O)[C@@H](NC(=O)c4ccccc4)c4ccccc4)C(C)=C1C3(C)C)[C@]1(OC(C)=O)CO[C@@H]1C[C@@H]2O [paclitaxel] | about −60 mV | 
COc1cc(/C=C/C(=O)CC(=O)/C=C/c2ccc(O)c(OC)c2)ccc1O [bare curcumin microparticles, curcumin] |  | −50±2 mV
